Experimental data taken from patent publication US20220267258A1, “ROBENIDINE ANALOGS AS POTENT ANTIMALARIALS AGAINST DRUG-RESISTANT PLASMODIUM FALCIPARUM” (OREGON HEALTH & SCIENCE UNIVERSITY, priority 2021, published 2022).
pIC50: −log10 of the molar value.

Assays:
[1] = test system: Babesia microti; conditions: oral; cited from earlier work
[2] = test system: P. falciparum Dd2; assay: SYBR Green growth inhibition assay, P. falciparum Dd2; assay type: cell-based, Plasmodium falciparum; conditions: multi-drug resistant strain, 72 hr; read-out: IC50 Dd2
Description: (§1) In addition to the drug-sensitive P. falciparum D6 strain, the aminoguanidines were assessed against three drug-resistant strains (Tables 1-3).
(§2) The following parasite strains were used in this study and obtained through BEI Resources, NIAID, NIH. […] The culture medium used was RPMI-1640, supplemented with 25 mM HEPES buffer, 25 mg/L gentamicin sulfate, 45 mg/L hypoxanthine, 10 mM glucose, 2 mM glutamine, and 0.5% Albumax II (complete medium).^43 Cultures were maintained in a standard low oxygen atmosphere (5% O2, 5% CO2, 90% N2) in an environmental chamber and incubated at 37° C. Cultures were sub-passaged every 3-4 days into a fresh culture flask containing complete media and erythrocytes.
(§3) The aminoguanidine series was assessed for in vitro antiplasmodial activity using the fluorescence-based SYBR Green assay described previously by Smilkstein and co-workers.^38 Compounds were evaluated in quadruplicate in flat-bottomed Costar clear 96-well plates (Model #3585). A two-fold serial dilution of each compound was performed across the columns of the test plates starting with 20 μM and ending with a final untreated column to serve as control wells. Asynchronous parasite infected erythrocytes in growth media were added to each well for a total volume of 100 μL, final hematocrit of 2%, and initial parasitemia of 0.2%. The commercial malaria drugs atovaquone and chloroquine were used as control drugs. Test plates were incubated for 72 hr at 37° C. in an environmental chamber with a controlled low oxygen atmosphere (5% O2, 5% CO2, 90% N2). After the incubation period, 100 μL SYBR Green I dye-detergent solution was added to each well, and the plates were incubated at ambient temperature and atmosphere in the dark for at least one hour. Fluorescence was read at 497 nm excitation and 520 nm emission bands using a Spectramax iD3 plate reader. Fluorescence readings were normalized with respect to the untreated control wells representing normal parasite growth and plotted against the logarithm of drug concentration.

[3] = test system: P. falciparum strain D6; assay: SYBR Green growth inhibition assay, P. falciparum D6; assay type: cell-based, Plasmodium falciparum; conditions: pan-sensitive strain, 72 hr, asynchronous cultures in human erythrocytes; read-out: IC50 D6
Description: The in vitro activity of each compound in the aminoguanidine library was assessed against asynchronous cultures of Plasmodium falciparum parasites replicating within human erythrocytes (Tables 1-3). As the chemical development of robenidine was not discussed in its original publication in 1970^4 and limited structural information is available regarding its mechanism of action,^10 profiling was guided primarily by in vitro potency against the P. falciparum D6 strain cultured in human erythrocytes as described above.
as §2
as §3, with “The commercial malaria drugs atovaquone and chloroquine were used as control drugs.” left out

[4] = test system: P. falciparum A6; assay: SYBR Green growth inhibition assay, P. falciparum A6; assay type: cell-based, Plasmodium falciparum; conditions: mutant line resistant to respiratory antagonists, 72 hr; read-out: IC50 A6
Description: as §1, §2, §3

[5] = test system: Plasmodium yoelii; assay: modified 4-day Peters test, murine malaria; assay type: in vivo, mice
Description: In this modified 4-day Peters test,^41 mice were inoculated with parasites from a donor mouse (day 0), and then dosed orally with drugs on each of the subsequent four days (days 1-4). On day 5 of the experiment, the parasitemia for each mouse was determined microscopically by examining methanol-fixed and Giemsa-stained blood smears. The ED50 represents the interpolated dose of a compound at which parasitemia was suppressed to one half that of untreated controls. Similarly, the ED90 represents the dose at which parasitemia is suppressed ten-fold. Mice were considered cured of their infection if no parasites were detected in the blood 30 days from the first drug administration, and the non-recrudescence dose (NRD) represents the lowest dose to achieve a cure.
The in vivo ED50 and ED90 of selected aminoguanidines was measured using a modified 4-day Peters test. Female CF1 mice from Charles River Laboratories were inoculated intravenously with approximately 2.5-5.0×10^4 parasitized erythrocytes (murine malaria P. yoelii, Kenya strain MR4 MRA-428) from a donor mouse (experiment day zero). On the following four days (experiment days 1-4), solutions of the test compounds in PEG-300 (or PEG-300 only for control mice) were administered by oral gavage once daily. […] Parasitemia of each mouse was determined by microscopic examination of Giemsa stained blood smears on day 5. ED50 and ED90 values were assessed by generating dose-response curves relative to untreated controls using Graphpad Prism (v. 8). Mice were considered cured of malarial infection if they maintained 0% parasitemia at experiment day 30. The procedures involved, together with all matters relating to the care, handling, and housing of the animals used in this study, were approved by the Portland VA Medical Center Institutional Animal Care and Use Committee.

[6] = test system: P. berghei; conditions: murine species P. berghei, 1970; cited from earlier work
[7] = test system: P. falciparum Tm90-C2B; assay: SYBR Green growth inhibition assay, P. falciparum Tm90-C2B; assay type: cell-based, Plasmodium falciparum; conditions: multi-drug resistant clinical isolate, also atovaquone resistant, 72 hr; read-out: IC50 Tm90-C2B
Description: as §1, §2, §3

[8] = murine microsomal stability; conditions: from t1/2, assumed murine hepatic blood flow 90 mL/min/kg
Description: To investigate the relationship between the aminoguanidines' in vivo efficacy and their metabolic properties, the murine microsomal stability of a selection of aminoguanidines was evaluated (Table 6). Robenidine, 16, 21, 1, and the control compound ketanserin were incubated with pooled murine liver microsomes and monitored for degradation by LC/MS/MS for one hour. The concentration vs. time plot for each compound was used to determine its biological half-life (t1/2) and predicted intrinsic clearance (Clint).
Metabolic stability studies of selected aminoguanidines were performed at ChemPartner, Shanghai, China. Compounds were incubated at 37° C. and 1 μM concentration in murine liver microsomes (Corning) for one hour at a protein concentration of 0.5 mg/mL in potassium phosphate buffer at pH 7.4 containing 1.0 mM EDTA. The metabolic reaction was initiated by NADPH and quenched with ice-cold acetonitrile at 15 minute increments up to one hour.

[9] = test system: Toxoplasma gondii; conditions: cited from earlier work
[10] = test system: human hepatoma derived HepG2 cells; assay: HepG2 cytotoxicity assay (resazurin); assay type: cell-based; conditions: HepG2, 24 hr drug, 24 hr recovery
Description: In this assay, HepG2 cells were incubated with test compounds for 24 hours, followed by a 24-hour recovery period and subsequent staining to evaluate for cytotoxic effects with resazurin. The ratio of the resulting HepG2 IC50 value to the P. falciparum D6 IC50 value can be considered an ‘in vitro therapeutic index,’ or IVTI.
Compounds were prepared as 10 mM stock solutions in DMSO. […] HepG2 cells were added to each well of flat bottom 96-well tissue culture plates at an initial density of 2×10^4 cells per well, and an initial volume of 160 μL complete medium per well. After an overnight incubation at 37° C. to adhere the cells to the culture plates, 40 μL drug solutions in complete medium were applied to each well at a final concentration range of 0 to 200 μM across each plate. Drugs were tested in triplicate or quadruplicate. The cells were incubated for 24 hours at 37° C. and 5% CO2 with the drug solutions, which were then aspirated and replaced with 200 μL per well of complete medium for an additional 24 hour incubation under the same conditions. To each well was added 20 μL of resazurin (Alamar Blue) in PBS buffer to a final concentration of 10 μM, and the plates were incubated for 3 hours. Fluorescence was measured at 560 nm excitation and 590 nm emission bands using a Spectramax iD3 plate reader. Fluorescence readings were normalized with respect to the untreated control wells and plotted against the logarithm of drug concentration.

[11] = oral gavage days 1-4, parasitemia day 5

N=C(N/N=C/c1ccc(Cl)cc1)N/N=C/c1ccc(Cl)cc1 [Robenidine]
murine in vivo non-recrudescence dose [1]: 100 mg/kg/day
pIC50 [2]: 6.09
pIC50 [3]: 6.49
pIC50 [4]: 6.39
P. yoelii ED50 [5, 11]: 1.6 mg/kg/day
P. yoelii ED90 [5, 11]: 4.9 mg/kg/day
P. yoelii NRD (non-recrudescence dose, cure dose) ([5]; oral, doses up to 25 mg/kg/day, no parasites at day 30): >25 mg/kg/day
activity in vivo [6]: moderate activity
pIC50 [7]: 5.88
Predicted Clint [8]: 34.40 mL/min/kg
in vitro IC50 [9]: 0.03 µg/mL
pIC50 [10]: 4.52
